Counter-ions that a name gives are not always drawn.
The compounds below were run against Bile salt export pump (Homo sapiens, UniProt O95342) (assay: Inhibition of human BSEP expressed in fall armyworm sf9 cell plasma membrane vesicles assessed as reduction in vesicle-associated [3H]-taurocholate transport preincubated for 10 mins prior to ATP addition measured after 15 mins in presence of [3H]-taurocholate by topcount based membrane vesicle transport assay).
Assay type: ADME

Structure (SMILES)	IC50 [µM]
NC[C@@H]1O[C@H](O[C@H]2[C@@H](O)[C@H](O[C@@H]3[C@@H](O)[C@H](N)C[C@H](N)[C@H]3O[C@H]3O[C@H](CN)[C@@H](O)[C@H](O)[C@H]3N)O[C@@H]2CO)[C@H](N)[C@@H](O)[C@@H]1O [FRAMYCETIN]	> 135
CC(=O)O[C@H]1C[C@@]2(C)[C@@H](C[C@@H](O)[C@H]3[C@@]4(C)CC[C@@H](O)[C@@H](C)[C@@H]4CC[C@@]32C)/C1=C(\CCC=C(C)C)C(=O)O [FUSIDIC ACID]	10.1
COc1ccc2c3c1O[C@H]1C[C@@H](O)C=C[C@@]31CCN(C)C2 [GALANTAMINE]	> 135
Nc1nc(O)c2ncn(COC(CO)CO)c2n1 [GANCICLOVIR]	> 135
Cc1ccc(C)c(OCCCC(C)(C)C(=O)O)c1 [GEMFIBROZIL]	> 135
CCC1=C(C)CN(C(=O)NCCc2ccc(S(=O)(=O)NC(=O)N[C@H]3CC[C@H](C)CC3)cc2)C1=O [GLIMEPIRIDE]	15.7
N=C(N)NC(=O)Cc1c(Cl)cccc1Cl [GUANFACINE]	> 135
CC(C)Cc1ccc(C(C)C(=O)O)cc1 (stereo not drawn) [IBUPROFEN]	> 135
c1ccc2c(c1)OCC(C1=NCCN1)O2 (stereo not drawn) [IDAZOXAN]	> 135
Cc1ccc(NC(=O)c2ccc(CN3CCN(C)CC3)cc2)cc1Nc1nccc(-c2cccnc2)n1 [IMATINIB]	25.1
Nc1cc(-c2ccncc2)c[nH]c1=O [INAMRINONE]	> 135
CC1Cc2ccccc2N1NC(=O)c1ccc(Cl)c(S(N)(=O)=O)c1 (stereo not drawn) [INDAPAMIDE]	> 135
O=C(NC1CCN(CCc2c[nH]c3ccccc23)CC1)c1ccccc1 [INDORAMIN]	> 135
CC(C)NNC(=O)c1ccncc1 [IPRONIAZID]	> 135
NNC(=O)c1ccncc1 [ISONIAZID]	> 135
CCC(C)n1ncn(-c2ccc(N3CCN(c4ccc(OCC5COC(Cn6cncn6)(c6ccc(Cl)cc6Cl)O5)cc4)CC3)cc2)c1=O (stereo not drawn) [ITRACONAZOLE]	18
NC[C@H]1O[C@H](O[C@H]2[C@H](O)[C@@H](O[C@H]3O[C@H](CO)[C@@H](O)[C@H](N)[C@H]3O)[C@H](N)C[C@@H]2N)[C@H](O)[C@@H](O)[C@@H]1O [KANAMYCIN]	> 135
CNC1(c2ccccc2Cl)CCCCC1=O (stereo not drawn) [KETAMINE]	> 135
O=C(c1ccc(F)cc1)C1CCN(CCn2c(=O)[nH]c3ccccc3c2=O)CC1 [KETANSERIN]	> 135
Cc1c(OCC(F)(F)F)ccnc1C[S+]([O-])c1nc2ccccc2[nH]1 (stereo not drawn) [LANSOPRAZOLE]	> 135
CS(=O)(=O)CCNCc1ccc(-c2ccc3ncnc(Nc4ccc(OCc5cccc(F)c5)c(Cl)c4)c3c2)o1 [LAPATINIB]	6.5

Structure (SMILES)	IC50 [µM]
Cc1cccc(C)c1OCC(=O)N[C@@H](Cc1ccccc1)[C@@H](O)C[C@H](Cc1ccccc1)NC(=O)[C@H](C(C)C)N1CCCNC1=O [LOPINAVIR]	17.3
CN(Cc1cnc2nc(N)nc(N)c2n1)c1ccc(C(=O)N[C@@H](CCC(=O)O)C(=O)O)cc1 [METHOTREXATE]	> 135
C[C@H]1C[C@@H]2[C@H]([C@@H](O)C[C@@]3(C)[C@H]2CC[C@]3(O)C(=O)CO)[C@@]2(C)C=CC(=O)C=C12 [METHYLPREDNISOLONE]	> 135
CCN(CC)CCNC(=O)c1cc(Cl)c(N)cc1OC [METOCLOPRAMIDE]	> 135
COc1ccc2cc1Oc1cc3c(cc1OC)CC[N+](C)(C)[C@H]3Cc1ccc(cc1)Oc1c(OC)c(OC)cc3c1[C@@H](C2)[N+](C)(C)CC3 [METOCURINE]	> 135
COCC(=O)O[C@]1(CCN(C)CCCc2nc3ccccc3[nH]2)CCc2cc(F)ccc2[C@@H]1C(C)C [MIBEFRADIL]	25 to 45
Cc1ncc2n1-c1ccc(Cl)cc1C(c1ccccc1F)=NC2 [MIDAZOLAM]	41.7
CN(C)C(=O)CCSC(SCCC(=O)O)c1cccc(/C=C/c2ccc3ccc(Cl)cc3n2)c1 (stereo not drawn) [MK-571]	3.5
O=C(NCCN1CCOCC1)c1ccc(Cl)cc1 [MOCLOBEMIDE]	> 135
CN1CC[C@]23c4c5ccc(O)c4O[C@H]2[C@@H](O)C=C[C@H]3[C@H]1C5 [MORPHINE]	> 135
CC(C)(C)NCC(O)COc1cccc2c1CC(O)C(O)C2 (stereo not drawn) [NADOLOL]	> 135
C=CCN1CC[C@]23c4c5ccc(O)c4O[C@H]2C(=O)CC[C@@]3(O)[C@H]1C5 [NALOXONE]	> 135
COc1ccc2cc([C@H](C)C(=O)O)ccc2c1 [NAPROXEN]	> 135
CCc1nn(CCCN2CCN(c3cccc(Cl)c3)CC2)c(=O)n1CCOc1ccccc1 [NEFAZODONE]	6.1
CN1CCOC(c2ccccc2)c2ccccc2C1 (stereo not drawn) [NEFOPAM]	> 135
CN(C)C(=O)Oc1cccc([N+](C)(C)C)c1 [NEOSTIGMINE]	> 135
Cc1ccnc2c1NC(=O)c1cccnc1N2C1CC1 [NEVIRAPINE]	> 135
COC(=O)C1=C(C)NC(C)=C(C(=O)OCCN(C)Cc2ccccc2)C1c1cccc([N+](=O)[O-])c1 (stereo not drawn) [NICARDIPINE]	7.9
CN1CCC[C@H]1c1cccnc1 [NICOTINE]	> 135
O=C1CN=C(c2ccccc2)c2cc([N+](=O)[O-])ccc2N1 [NITRAZEPAM]	> 135
CCOC(=O)C1=C(C)NC(C)=C(C(=O)OC)C1c1cccc([N+](=O)[O-])c1 (stereo not drawn) [NITRENDIPINE]	25 to 45

Structure (SMILES)	IC50 [µM]
CNCCC=C1c2ccccc2CCc2ccccc21 [NORTRIPTYLINE]	> 135
COc1ccc2[nH]c([S+]([O-])Cc3ncc(C)c(OC)c3C)nc2c1 (stereo not drawn) [OMEPRAZOLE]	75 to 105
Cc1nccn1CC1CCc2c(c3ccccc3n2C)C1=O (stereo not drawn) [ONDANSETRON]	> 135
COc1ccc(Cc2nccc3cc(OC)c(OC)cc23)cc1OC [PAPAVERINE]	> 135
CCn1cc(C(=O)O)c(=O)c2cc(F)c(N3CCN(C)CC3)cc21 [PEFLOXACIN]	> 135
N=C(N)c1ccc(OCCCCCOc2ccc(C(=N)N)cc2)cc1 [PENTAMIDINE]	> 135
CC(=O)CCCCn1c(=O)c2c(ncn2C)n(C)c1=O [PENTOXIFYLLINE]	> 135
OCCN1CCN(CCCN2c3ccccc3Sc3ccc(Cl)cc32)CC1 [PERPHENAZINE]	> 135
CCOc1ccc(NC(C)=O)cc1 [PHENACETIN]	> 135
[H]/N=C(/N)N/C(=N/[H])NCCc1ccccc1 [PHENFORMIN]	> 135
CCC1(c2ccccc2)C(=O)NC(=O)NC1=O [PHENOBARBITAL]	> 135
CCc1ccc(CCOc2ccc(CC3SC(=O)NC3=O)cc2)nc1 (stereo not drawn) [PIOGLITAZONE]	0.4
Cc1cccc(Nc2cc(Cl)nc(SCC(=O)O)n2)c1C [PIRINIXIC ACID]	75 to 105
COc1cc2nc(N3CCN(C(=O)c4ccco4)CC3)nc(N)c2cc1OC [PRAZOSIN]	> 135
COc1cc(NC(C)CCCN)c2ncccc2c1 (stereo not drawn) [PRIMAQUINE]	32.7
CC(CN1c2ccccc2Sc2ccccc21)N(C)C (stereo not drawn) [PROMETHAZINE]	> 135
O=c1c(O)c(-c2ccc(O)c(O)c2)oc2cc(O)cc(O)c12 [QUERCETIN]	> 135
C=C[C@H]1C[N@@]2CC[C@H]1C[C@@H]2[C@@H](O)c1ccnc2ccc(OC)cc12 [QUINIDINE]	> 135
C=C[C@H]1C[N@@]2CC[C@H]1C[C@H]2[C@H](O)c1ccnc2ccc(OC)cc12 [QUININE]	> 135
CCN1CCC[C@H]1CNC(=O)c1c(OC)ccc(Br)c1OC [REMOXIPRIDE]	> 135
COC(=O)[C@H]1[C@H]2C[C@@H]3c4[nH]c5cc(OC)ccc5c4CCN3C[C@H]2C[C@@H](OC(=O)c2cc(OC)c(OC)c(OC)c2)[C@@H]1OC [RESERPINE]	8.4

Structure (SMILES)	IC50 [µM]
CO[C@H]1/C=C/O[C@@]2(C)Oc3c(C)c(O)c4c(c3C2=O)C2=NC3(CCN(CC(C)C)CC3)NC2=C(NC(=O)/C(C)=C\C=C\[C@H](C)[C@H](O)[C@@H](C)[C@@H](O)[C@@H](C)[C@H](OC(C)=O)[C@@H]1C)C4=O [RIFABUTIN]	26.7
CO[C@H]1/C=C/O[C@@]2(C)Oc3c(C)c(O)c4c(O)c(c(/C=N/N5CCN(C)CC5)c(O)c4c3C2=O)NC(=O)/C(C)=C\C=C\[C@H](C)[C@H](O)[C@@H](C)[C@@H](O)[C@@H](C)[C@H](OC(C)=O)[C@@H]1C [RIFAMPIN]	25.3
CS(=O)(=O)c1ccc(C2=C(c3ccccc3)C(=O)OC2)cc1 [ROFECOXIB]	> 135
CN(CCOc1ccc(CC2SC(=O)NC2=O)cc1)c1ccccn1 (stereo not drawn) [ROSIGLITAZONE]	4.4
C#CCN(C)[C@H](C)Cc1ccccc1 [SELEGILINE HYDROCHLORIDE]	> 135
N[C@@H](CC(=O)N1CCn2c(nnc2C(F)(F)F)C1)Cc1cc(F)c(F)cc1F [SITAGLIPTIN]	> 135
CNC(=O)c1cc(Oc2ccc(NC(=O)Nc3ccc(Cl)c(C(F)(F)F)c3)cc2)ccn1 [SORAFENIB]	8
CC(C)NCC(O)c1ccc(NS(C)(=O)=O)cc1 (stereo not drawn) [SOTALOL]	> 135
CN[C@@H]1C[C@H]2O[C@@](C)([C@@H]1OC)n1c3ccccc3c3c4c(c5c6ccccc6n2c5c31)C(=O)NC4 [STAUROSPORINE]	18.7
Nc1ccc(S(=O)(=O)Nc2ncccn2)cc1 [SULFADIAZINE]	> 135
Cc1cc(NS(=O)(=O)c2ccc(N)cc2)no1 [SULFAMETHOXAZOLE]	> 135
Cc1noc(NS(=O)(=O)c2ccc(N)cc2)c1C [SULFISOXAZOLE]	> 135
Cc1ccc(C(=O)Nc2ccc(S(=O)(=O)O)c3cc(S(=O)(=O)O)cc(S(=O)(=O)O)c23)cc1NC(=O)c1cccc(NC(=O)Nc2cccc(C(=O)Nc3cc(C(=O)Nc4ccc(S(=O)(=O)O)c5cc(S(=O)(=O)O)cc(S(=O)(=O)O)c45)ccc3C)c2)c1 [SURAMIN]	> 135
Nc1c2c(nc3ccccc13)CCCC2 [TACRINE]	> 135
CC[C@H]1OC(=O)[C@H](C)C(=O)[C@H](C)[C@@H](O[C@@H]2O[C@H](C)C[C@H](N(C)C)[C@H]2O)[C@](C)(OC)C[C@@H](C)C(=O)[C@H](C)[C@H]2N(CCCCn3cnc(-c4cccnc4)c3)C(=O)O[C@]12C [TELITHROMYCIN]	4
CN1C(C(=O)Nc2ccccn2)=C(O)c2sccc2S1(=O)=O [TENOXICAM]	> 135
CC(C)(C)NCC(O)c1cc(O)cc(O)c1 (stereo not drawn) [TERBUTALINE]	> 135
Cn1c(=O)c2[nH]cnc2n(C)c1=O [THEOPHYLLINE]	> 135
S=P(N1CC1)(N1CC1)N1CC1 [THIOTEPA]	> 135
CCN(CC)CCOc1ccc2c(c1)C(=O)c1cc(OCCN(CC)CC)ccc1-2 [TILORONE]	> 135
